Experimental data published in PMC5400565, “Real-time near-infrared fluorescence imaging using cRGD-ZW800-1 for intraoperative visualization of multiple cancer types” (Oncotarget, 2017).

Legend:
Muscarinic M1 = molecular target: T1, Muscarinic M1 (Homo sapiens, UniProt P11229); assay: biochemical; assay type: binding
T1 construct: Eurofins Cerep SA (contract screening)

Vasopressin V1a = molecular target: T2, Vasopressin V1a (Homo sapiens, UniProt P37288); assay: Off-target screening (Eurofins Cerep), V1a; assay type: binding
T2 construct: Eurofins Cerep SA (contract screening)

MAO-A = molecular target: T3, MAO-A (Rattus norvegicus, UniProt P21396); assay: Off-target screening (Eurofins Cerep), MAO-A; assay type: binding
T3 construct: Eurofins Cerep SA (contract screen)

U-87 MG cells = assay: In vitro competition with unlabeled cRGD, U-87 MG; assay type: cell-based, human; details: 500 nM cRGD-ZW800-1 + 500 nM unlabeled cRGD (1:1), 37°C, 2 h, vs cells without unlabeled cRGD, triplicate, p = 0.02
Method: For in vitro competition, U-87 MG (αvβ3 and αvβ5 positive, αvβ6 negative) and HT-29 (αvβ3 negative, αvβ5 and αvβ6 positive) cells were plated in a 96-well plate at a density of ∼40,000 and ∼60,000 cells per well, respectively. Subsequently, 500 nM of cRGD-ZW800-1 was simultaneously added to the cells and incubated at 37°C for 2 h. At the same time, half of the cells were also incubated with 500 nM unlabeled (“cold”) cRGD.
Both the cells in the binding and the competition experiment were then washed twice and imaged with the Odyssey NIR scanner (LI-COR Biosciences, Lincoln, Nebraska: focus offset 3 mm; 800-nm channel). Next, cells were permeabilized with a 40/60 mixture of acetone and methanol followed by a washing step and a 5 min incubation with ToPro3 (1/2000, Invitrogen), a far red fluorescent dye (642/661nm). The wells were then washed and again imaged with the Odyssey scanner (focus offset 3 mm; 700-nm channel) to quantify the number of cells in each well. The experiments were performed in triplicate.

Dopamine D1 = molecular target: T4, Dopamine D1 (Homo sapiens, UniProt P21728); assay: Off-target screening (Eurofins Cerep), D1; assay type: binding
T4 construct: Eurofins Cerep SA (contract screening)

Muscarinic M3 = molecular target: T5, Muscarinic M3 (Homo sapiens, UniProt P20309); assay: Off-target screening (Eurofins Cerep), M3; assay type: binding
T5 construct: Eurofins Cerep SA (contract screening)

PDE3A = molecular target: T6, PDE3A (Homo sapiens, UniProt Q14432); assay: Off-target screening (Eurofins Cerep), PDE3A; assay type: biochemical
T6 construct: Eurofins Cerep SA (contract screen)

[1] = molecular target: T7, Norepinephrine transporter (Homo sapiens, UniProt P23975); assay: Off-target screening (Eurofins Cerep), norepinephrine transporter; assay type: binding
T7 construct: Eurofins Cerep SA (contract screen)

Opioid µ (MOP) = molecular target: T8, Opioid µ (MOP) (Homo sapiens, UniProt P35372); assay: Off-target screening (Eurofins Cerep), µ (MOP); assay type: binding
T8 construct: Eurofins Cerep SA (contract screening)

HT-29 cells = assay: Binding assay of cRGD-ZW800-1 on cells; assay type: cell-based, human
[2] = read-out: % Inhibition of Control Specific Binding
[3] = read-out: % of Control Specific Binding Mean
[4] = 10 μM cRGD-ZW800-1, format H, Ag, performed twice, read-out: % Inhibition of Control Specific Binding
[5] = 10 μM, mean of 2, read-out: % of Control Specific Binding Mean

T5 sequence (P20309 whole entry): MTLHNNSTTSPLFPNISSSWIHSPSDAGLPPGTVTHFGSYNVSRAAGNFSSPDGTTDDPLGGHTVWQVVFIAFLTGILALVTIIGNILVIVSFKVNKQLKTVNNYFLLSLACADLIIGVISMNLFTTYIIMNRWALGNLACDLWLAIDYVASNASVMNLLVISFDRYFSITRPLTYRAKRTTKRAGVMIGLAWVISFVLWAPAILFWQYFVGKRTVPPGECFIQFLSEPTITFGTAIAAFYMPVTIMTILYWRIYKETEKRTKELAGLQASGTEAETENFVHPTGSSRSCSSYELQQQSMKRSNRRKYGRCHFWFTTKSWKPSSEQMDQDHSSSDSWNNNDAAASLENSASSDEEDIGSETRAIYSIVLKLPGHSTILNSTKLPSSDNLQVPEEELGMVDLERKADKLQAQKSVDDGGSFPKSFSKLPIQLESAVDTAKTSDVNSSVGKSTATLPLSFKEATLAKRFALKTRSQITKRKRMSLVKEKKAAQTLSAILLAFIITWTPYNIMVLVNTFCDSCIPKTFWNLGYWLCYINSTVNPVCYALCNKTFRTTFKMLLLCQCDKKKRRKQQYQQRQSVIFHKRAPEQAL
T6 sequence (Q14432 whole entry): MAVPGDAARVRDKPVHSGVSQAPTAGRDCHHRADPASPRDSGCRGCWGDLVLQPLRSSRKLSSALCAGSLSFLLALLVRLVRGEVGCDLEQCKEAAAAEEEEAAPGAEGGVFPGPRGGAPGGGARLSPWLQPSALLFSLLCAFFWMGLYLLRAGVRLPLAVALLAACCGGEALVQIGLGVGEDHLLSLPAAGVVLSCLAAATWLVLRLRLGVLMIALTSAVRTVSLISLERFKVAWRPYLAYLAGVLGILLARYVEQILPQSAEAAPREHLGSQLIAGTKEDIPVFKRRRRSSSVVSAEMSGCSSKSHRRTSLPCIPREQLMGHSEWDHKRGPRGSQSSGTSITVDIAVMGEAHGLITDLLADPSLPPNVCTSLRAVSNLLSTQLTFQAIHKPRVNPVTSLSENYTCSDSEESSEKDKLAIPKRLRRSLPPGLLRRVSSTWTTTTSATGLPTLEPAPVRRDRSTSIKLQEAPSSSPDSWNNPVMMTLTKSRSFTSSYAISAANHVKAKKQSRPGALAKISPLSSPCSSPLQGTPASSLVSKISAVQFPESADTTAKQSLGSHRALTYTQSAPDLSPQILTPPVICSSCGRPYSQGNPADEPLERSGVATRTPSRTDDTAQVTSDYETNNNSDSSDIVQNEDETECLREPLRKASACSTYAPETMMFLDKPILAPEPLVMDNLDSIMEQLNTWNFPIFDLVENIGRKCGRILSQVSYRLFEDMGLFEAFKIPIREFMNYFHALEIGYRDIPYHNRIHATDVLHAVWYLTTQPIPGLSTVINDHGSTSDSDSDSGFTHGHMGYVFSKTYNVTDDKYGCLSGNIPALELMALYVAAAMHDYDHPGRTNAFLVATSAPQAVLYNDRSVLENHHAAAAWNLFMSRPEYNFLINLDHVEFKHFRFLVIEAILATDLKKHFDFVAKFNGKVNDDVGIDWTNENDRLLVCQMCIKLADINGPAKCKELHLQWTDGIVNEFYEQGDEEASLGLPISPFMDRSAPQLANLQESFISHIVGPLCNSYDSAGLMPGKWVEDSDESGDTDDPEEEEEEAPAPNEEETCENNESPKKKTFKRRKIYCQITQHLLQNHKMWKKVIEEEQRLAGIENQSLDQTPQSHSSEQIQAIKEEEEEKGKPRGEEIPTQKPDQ
T1 sequence (P11229 whole entry): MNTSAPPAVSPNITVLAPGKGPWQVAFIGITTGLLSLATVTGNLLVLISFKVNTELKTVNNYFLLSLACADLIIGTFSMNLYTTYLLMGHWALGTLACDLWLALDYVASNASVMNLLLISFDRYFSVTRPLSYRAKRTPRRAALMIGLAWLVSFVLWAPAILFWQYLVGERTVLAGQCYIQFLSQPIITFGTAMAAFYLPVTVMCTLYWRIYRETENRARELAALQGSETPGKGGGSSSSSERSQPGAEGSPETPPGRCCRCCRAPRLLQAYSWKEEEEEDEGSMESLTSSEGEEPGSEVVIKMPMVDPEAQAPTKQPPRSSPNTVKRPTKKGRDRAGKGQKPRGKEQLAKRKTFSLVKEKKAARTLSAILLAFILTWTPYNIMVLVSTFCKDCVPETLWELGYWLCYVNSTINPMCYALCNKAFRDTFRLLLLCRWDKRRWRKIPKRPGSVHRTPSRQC
T7 sequence (P23975 whole entry): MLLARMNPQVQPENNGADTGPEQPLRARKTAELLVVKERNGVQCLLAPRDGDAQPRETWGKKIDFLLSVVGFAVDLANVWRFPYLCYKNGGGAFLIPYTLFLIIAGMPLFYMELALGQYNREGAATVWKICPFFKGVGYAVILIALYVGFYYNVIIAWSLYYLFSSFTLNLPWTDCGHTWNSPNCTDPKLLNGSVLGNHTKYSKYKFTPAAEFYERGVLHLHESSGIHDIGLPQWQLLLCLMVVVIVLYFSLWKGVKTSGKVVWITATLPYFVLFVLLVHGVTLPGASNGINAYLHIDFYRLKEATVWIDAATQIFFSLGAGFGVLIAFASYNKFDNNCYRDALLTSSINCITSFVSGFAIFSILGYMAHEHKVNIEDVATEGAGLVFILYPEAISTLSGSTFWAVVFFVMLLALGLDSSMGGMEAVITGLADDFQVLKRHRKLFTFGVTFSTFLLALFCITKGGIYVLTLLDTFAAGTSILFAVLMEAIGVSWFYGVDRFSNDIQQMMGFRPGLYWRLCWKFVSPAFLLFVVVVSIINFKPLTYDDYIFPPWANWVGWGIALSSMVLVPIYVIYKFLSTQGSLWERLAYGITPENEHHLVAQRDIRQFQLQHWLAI
T3 sequence (P21396 whole entry): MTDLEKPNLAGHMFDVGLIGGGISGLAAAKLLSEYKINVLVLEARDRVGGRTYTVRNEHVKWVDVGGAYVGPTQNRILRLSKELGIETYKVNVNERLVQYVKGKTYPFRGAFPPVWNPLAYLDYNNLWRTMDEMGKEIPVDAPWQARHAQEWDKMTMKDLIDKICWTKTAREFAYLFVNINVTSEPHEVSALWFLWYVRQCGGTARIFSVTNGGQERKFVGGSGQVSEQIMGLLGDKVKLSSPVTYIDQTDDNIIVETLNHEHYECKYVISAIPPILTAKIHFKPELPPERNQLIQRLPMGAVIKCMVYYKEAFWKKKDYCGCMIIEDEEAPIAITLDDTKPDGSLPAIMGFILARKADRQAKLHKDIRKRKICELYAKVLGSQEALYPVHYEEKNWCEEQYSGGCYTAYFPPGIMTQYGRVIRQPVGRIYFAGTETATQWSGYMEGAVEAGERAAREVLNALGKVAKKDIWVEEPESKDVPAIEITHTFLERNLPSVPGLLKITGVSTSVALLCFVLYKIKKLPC
T2 sequence (P37288 whole entry): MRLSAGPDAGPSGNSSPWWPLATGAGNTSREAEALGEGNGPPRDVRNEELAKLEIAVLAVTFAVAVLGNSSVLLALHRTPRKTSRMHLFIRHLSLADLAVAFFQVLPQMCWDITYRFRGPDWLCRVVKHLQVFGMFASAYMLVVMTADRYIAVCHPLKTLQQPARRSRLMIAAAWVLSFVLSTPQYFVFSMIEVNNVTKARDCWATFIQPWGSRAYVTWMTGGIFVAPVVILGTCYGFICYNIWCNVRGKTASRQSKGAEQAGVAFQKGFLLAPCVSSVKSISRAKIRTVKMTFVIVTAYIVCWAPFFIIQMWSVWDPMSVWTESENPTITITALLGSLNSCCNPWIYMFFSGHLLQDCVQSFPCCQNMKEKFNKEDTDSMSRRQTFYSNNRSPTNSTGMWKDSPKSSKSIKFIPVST
T8 sequence (P35372 whole entry): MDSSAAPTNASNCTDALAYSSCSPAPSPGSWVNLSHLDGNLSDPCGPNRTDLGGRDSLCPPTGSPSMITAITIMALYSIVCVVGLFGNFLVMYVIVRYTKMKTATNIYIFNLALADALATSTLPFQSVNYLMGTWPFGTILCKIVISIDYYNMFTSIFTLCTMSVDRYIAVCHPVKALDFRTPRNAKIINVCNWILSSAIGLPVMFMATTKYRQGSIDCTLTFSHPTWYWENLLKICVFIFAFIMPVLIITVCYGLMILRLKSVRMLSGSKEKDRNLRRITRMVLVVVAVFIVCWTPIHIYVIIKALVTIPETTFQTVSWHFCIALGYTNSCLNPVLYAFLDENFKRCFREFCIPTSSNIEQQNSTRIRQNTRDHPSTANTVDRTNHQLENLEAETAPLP
T4 sequence (P21728 whole entry): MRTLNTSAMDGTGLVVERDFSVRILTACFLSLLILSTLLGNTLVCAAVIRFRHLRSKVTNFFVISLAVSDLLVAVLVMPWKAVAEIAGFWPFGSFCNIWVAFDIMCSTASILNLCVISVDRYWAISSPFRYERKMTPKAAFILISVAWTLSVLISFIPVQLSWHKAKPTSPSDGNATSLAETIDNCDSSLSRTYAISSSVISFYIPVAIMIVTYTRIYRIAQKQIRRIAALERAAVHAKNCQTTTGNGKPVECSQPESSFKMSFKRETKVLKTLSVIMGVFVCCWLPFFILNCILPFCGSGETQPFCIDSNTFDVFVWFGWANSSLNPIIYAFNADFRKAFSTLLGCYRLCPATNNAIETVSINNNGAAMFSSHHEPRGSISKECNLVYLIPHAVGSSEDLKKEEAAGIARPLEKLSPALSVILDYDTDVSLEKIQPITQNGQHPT

## CC1(C)C(/C=C/C2=C(Oc3ccc(CCC(=O)NCCCC[C@@H]4NC(=O)[C@@H](Cc5ccc(O)cc5)NC(=O)[C@H](CC(=O)O)NC(=O)CNC(=O)[C@H](CCCNC(=N)N)NC4=O)cc3)C(=C/C=C3/N(CCC[N+](C)(C)C)c4ccc(S(=O)(=O)O)cc4C3(C)C)/CCC2)=[N+](CCC[N+](C)(C)C)c2ccc(S(=O)(=O)O)cc21 [cRGD-ZW800-1]
Muscarinic M1; [2]
  inhibition at 10 µM: 5%
Muscarinic M1; [3]
  remaining activity at 10 µM: 95.5%
Vasopressin V1a; [4]
  inhibition at 10 µM: 4%
Vasopressin V1a; [5]
  remaining activity at 10 µM: 96%
MAO-A; 10 μM cRGD-ZW800-1, format An, performed twice, read-out: % Inhibition of Control Specific Binding
  inhibition at 10 µM: 15%
MAO-A; [5]
  remaining activity at 10 µM: 85%
U-87 MG cells
  reduction of fluorescence signal by unlabeled cRGD: 36%
Dopamine D1; [2]
  inhibition at 10 µM: -1%
Dopamine D1; [3]
  remaining activity at 10 µM: 101%
Muscarinic M3; [2]
  inhibition at 10 µM: -7%
Muscarinic M3; [3]
  remaining activity at 10 µM: 107%
PDE3A; 10 μM cRGD-ZW800-1, format H, performed twice, read-out: % Inhibition of Control Specific Binding
  inhibition at 10 µM: -12%
PDE3A; [5]
  remaining activity at 10 µM: 112%
[1]; 10 μM cRGD-ZW800-1, format H, An, performed twice, read-out: % Inhibition of Control Specific Binding
  inhibition at 10 µM: 3%
[1]; [5]
  remaining activity at 10 µM: 97.4%
Opioid µ (MOP); [4]
  inhibition at 10 µM: 10%
Opioid µ (MOP); [5]
  remaining activity at 10 µM: 90.3%
HT-29 cells; 0, 125, 250, 500, 1000 nM, 1 h, Odyssey NIR scanner 800-nm channel, triplicate
  fluorescence intensity with increasing concentrations: almost linear increase
HT-29 cells; incubated at 4°C, which prevents internalization, p < 0.0001
  fluorescence signals at 4°C compared to 37°C: Significantly lower signals
